Data: US11286234B2, “Phenyl urea derivatives as N-formyl peptide receptor modulators” (Allergan, Inc., priority 2016, dated 2022)

Assays:
[1] = molecular target: T1, FPR2 (Homo sapiens, UniProt P25090); assay: Compound-induced calcium activity (FLIPR Tetra) in CHO-Gα16 cells stably expressing FPR2; type: cell-based; conditions: for EC50: calcium activity, tested 0.61 to 10,000 nM, read-out: FPR2 Ga16-CHO EC50; for Emax: efficacy value in brackets, read-out: FPR2 Ga16-CHO (% eff)
T1 construct: expressed in transfected cells
T1 sequence (P25090 1-351): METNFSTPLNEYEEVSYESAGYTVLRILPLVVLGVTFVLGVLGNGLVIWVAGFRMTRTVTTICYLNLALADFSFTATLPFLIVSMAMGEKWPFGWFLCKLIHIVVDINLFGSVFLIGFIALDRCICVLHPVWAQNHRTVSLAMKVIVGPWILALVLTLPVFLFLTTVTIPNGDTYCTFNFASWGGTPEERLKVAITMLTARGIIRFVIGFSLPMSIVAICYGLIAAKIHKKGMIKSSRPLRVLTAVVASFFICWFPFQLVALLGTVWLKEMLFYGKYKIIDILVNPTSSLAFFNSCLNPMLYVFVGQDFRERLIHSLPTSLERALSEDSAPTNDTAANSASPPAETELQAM
Experimental: (§1) CHO-Gα16 cells stably expressing FPR1 or FPR2 were cultured in: Ham's F12 nutrient media, 10% fetal bovine serum, 1% PSA (penicillin, streptomycin, amphotericin B antiobiotic/antimycotic), 400 μg/ml geneticin and 50 μg/ml hygromycin. In general, the day before the experiment, 18,000 cells/well were plated in a 384-well clear bottom poly-D-lysine coated plate. The following day the screening compound-induced calcium activity was assayed on the FLIPR^Tetra. The drug plates were prepared in 384-well microplates using the EP3 and the MultiPROBE robotic liquid handling systems. Compounds were tested at concentrations ranging from 0.61 to 10,000 nM. Results are expressed as EC50 (nM) and efficacy values.

[2] = molecular target: T2, FPR1 (Homo sapiens, UniProt P21462); assay: Compound-induced calcium activity (FLIPR Tetra) in CHO-Gα16 cells stably expressing FPR1; type: cell-based; conditions: for EC50 / Emax: CHO-Gα16 cells stably expressing FPR1; for EC50: calcium activity, tested 0.61 to 10,000 nM, read-out: FPR1 Ga16-CHO EC50; for Emax: efficacy value in brackets, read-out: FPR1 Ga16-CHO (% eff); for Ratio FPR2:FPR1 (EC50): ratio of the EC50 for agonizing FPR2 to the EC50 for agonizing FPR1
T2 construct: expressed in transfected cells
T2 sequence (P21462 1-350): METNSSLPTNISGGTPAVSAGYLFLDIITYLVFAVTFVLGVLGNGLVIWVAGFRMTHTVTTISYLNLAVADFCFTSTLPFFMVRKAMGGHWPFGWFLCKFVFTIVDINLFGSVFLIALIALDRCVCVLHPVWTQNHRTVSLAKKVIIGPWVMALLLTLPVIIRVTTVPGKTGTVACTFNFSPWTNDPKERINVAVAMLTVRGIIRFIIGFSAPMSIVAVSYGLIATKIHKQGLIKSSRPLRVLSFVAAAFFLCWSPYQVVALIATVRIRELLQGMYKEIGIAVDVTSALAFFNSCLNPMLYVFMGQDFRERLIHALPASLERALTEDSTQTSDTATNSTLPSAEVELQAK
Experimental: as §1

EC50 [1]	Emax [1]	EC50 [2]	Emax [2]	Ratio FPR2:FPR1 (EC50) [2]	SMILES
678 nM	47%	4030 nM	72%	0.17	COC(=O)C(CNC(=O)Nc1ccc(Br)cc1)CC(C)C (stereo not drawn) [Compound 1, Methyl 2-[({[(4-bromophenyl)amino]carbonyl}amino)methyl]-4-methylpentanoate]
1300 nM	90%	35 nM	97%	37	CC(C)CC(CNC(=O)Nc1ccc(Br)cc1)C(=O)O (stereo not drawn) [Compound 7, 2-[({[(4-Bromophenyl)amino]carbonyl}amino)methyl]-4-methylpentanoic acid]
3000 nM		163 nM	95%	18	CC(C)CC(CNC(=O)Nc1ccc(Cl)cc1)C(=O)O (stereo not drawn) [Compound 9, 2-[({[(4-Chlorophenyl)amino]carbonyl}amino)methyl]-4-methylpentanoic acid]
> 1000 nM	56%	1220 nM	92%		COc1ccc(NC(=O)NCC(CC(C)C)C(=O)O)cc1 (stereo not drawn) [Compound 11, 2-[({[(4-methoxyphenyl)amino]carbonyl}amino)methyl]-4-methylpentanoic acid]
2670 nM	83%	2190 nM	97%	1.2	CC(C)C(CNC(=O)Nc1ccc(Br)cc1)C(=O)O (stereo not drawn) [Compound 13, 2-((3-(4-Bromophenyl)ureido)methyl)-3-methylbutanoic acid]
1320 nM	83%	243 nM	99%	5.4	CCCC(CNC(=O)Nc1ccc(Br)cc1)C(=O)O (stereo not drawn) [Compound 14, 2-((3-(4-Bromophenyl)ureido)methyl)pentanoic acid]
3070 nM	62%	2850 nM	84%	1.1	CC(CNC(=O)Nc1ccc(Br)cc1)C(=O)O (stereo not drawn) [Compound 16, 3-(3-(4-Bromophenyl)ureido)-2-methylpropanoic acid]
2270 nM	71%	2150 nM	85%	1.1	CCC(CNC(=O)Nc1ccc(Br)cc1)C(=O)O (stereo not drawn) [Compound 17, 2-((3-(4-Bromophenyl)ureido)methyl)butanoic acid]
314 nM	92%	6320 nM	69%	<1	CC(C)CC(CNC(=O)Nc1ccc(Br)cc1)C(=O)N(C)C (stereo not drawn) [Compound 34, 2-((3-(4-bromophenyl)ureido)methyl)-N,N,4-trimethylpentanamide]
975 nM	95%	7090 nM	80%	0.14	CC(C)CC(CNC(=O)Nc1ccc(Br)cc1)C(N)=O (stereo not drawn) [Compound 35, 2-((3-(4-bromophenyl)ureido)methyl)-4-methylpentanamide]

The next lines start with the molecule.

SMILES	EC50 [1]	Emax [1]	EC50 [2]	Emax [2]	Ratio FPR2:FPR1 (EC50) [2]
O=C(Nc1ccc(Br)cc1)N[C@@H]1CCCC[C@H]1C(=O)O (relative stereo) [Compound 18, (1R*,2R*)-2-(3-(4-Bromophenyl)ureido)cyclohexanecarboxylic acid]	246 nM	98%	47 nM	101%	5.2
O=C(Nc1ccc(Br)cc1)N[C@H]1CCCC[C@H]1C(=O)O (relative stereo) [Compound 19, (1R*,2S*)-2-(3-(4-Bromophenyl)ureido)cyclohexanecarboxylic acid]	48 nM	102%	14 nM	97%	3.4
COC(=O)C(CNC(=O)Nc1ccc(C(F)(F)F)cc1)CC(C)C (stereo not drawn) [Compound 2, Methyl 4-methyl-2-{[({[4-(trifluoromethyl)phenyl]amino}carbonyl)amino]methyl}pentanoate]	2200 nM	78%	10400 nM	57%	0.21
COC(=O)C(CNC(=O)Nc1ccc(Cl)cc1)CC(C)C (stereo not drawn) [Compound 3, Methyl 2-[({[(4-chlorophenyl)amino]carbonyl}amino)methyl]-4-methylpentanoate]	1320 nM	95%	> 10000 nM	50%	<1
COC(=O)C(CNC(=O)Nc1ccc(Br)cc1F)CC(C)C (stereo not drawn) [Compound 4, Methyl 2[({[(4-bromo-2-fluorophenyl)amino]carbonyl}amino)methyl]-4-methylpentanoate]	1530 nM	98%	> 19000 nM	21%	<1
COC(=O)C(CNC(=O)Nc1ccc(OC)cc1)CC(C)C (stereo not drawn) [Compound 5, Methyl 2-[({[(4-methoxyphenyl)amino]carbonyl}amino)methyl]-4-methylpentanoate]	541 nM	42%	> 73000 nM	65%	<1
COC(=O)C(CNC(=O)Nc1ccc(OC(F)(F)F)cc1)CC(C)C (stereo not drawn) [Compound 6, Methyl 4-methyl-2-{[({[4-(trifluoromethoxy)phenyl]amino}carbonyl)amino]methyl}pentanoate]	> 1000 nM	67%	> 15000 nM	39%	
CC(C)CC(CNC(=O)Nc1ccc(C(F)(F)F)cc1)C(=O)O (stereo not drawn) [Compound 8, 4-Methyl-2-{[({[4-(trifluoromethyl)phenyl}amino}carbonyl)amino]methyl}pentanoic acid]	1350 nM	92%	54 nM	105%	25
CC(C)CC(CNC(=O)Nc1ccc(Br)cc1F)C(=O)O (stereo not drawn) [Compound 10, 2[({[(4-Bromo-2-fluorophenyl)amino]carbonyl}amino)methyl]-4-methylpentanoic acid]	1910 nM	94%	113 nM	98%	17
CC(C)CC(CNC(=O)Nc1ccc(OC(F)(F)F)cc1)C(=O)O (stereo not drawn) [Compound 12, 4-Methyl-2-{[({[4-(trifluoromethoxy)phenyl]amino}carbonyl)amino]methyl}pentanoic acid]	8090 nM	40%	1180 nM	81%	6.9
O=C(NCC(Cc1ccccc1)C(=O)O)Nc1ccc(Br)cc1 (stereo not drawn) [Compound 15, 2-Benzyl-3-(3-(4-bromophenyl)ureido)propanoic acid]	351 nM	93%	67 nM	94%	5.2
O=C(Nc1ccc(Br)cc1)NC1CCCCCCC1C(=O)O (stereo not drawn) [Compound 20, 2-(3-(4-Bromophenyl)ureido)cyclooctanecarboxylic acid]	82 nM	97%	51 nM		1.6
CC(C)CC(CCNC(=O)Nc1ccc(Br)cc1)S(=O)(=O)O (stereo not drawn) [Compound 21, 1-(3-(4-Bromophenyl)ureido)-5-methylhexane-3-sulfonic acid]	1260 nM	89%	7 nM	99%	179
CC(C)CC(CNC(=O)Nc1ccc(Br)cc1)C(=O)NCC(=O)OC(C)(C)C (stereo not drawn) [Compound 31, t-Butyl ({2-[({[(4 bromophenyl)amino]carbonyl}amino)methyl]-4-methylpentanoyl}amino)acetate]	1500 nM	18%	552 nM	98%	2.7
CC(C)CC(CNC(=O)Nc1ccc(Br)cc1)C(=O)N(C)CC(=O)OC(C)(C)C (stereo not drawn) [Compound 32, tert-Butyl 2-(2-((3-(4-bromophenyl)ureido)methyl)-N,4-dimethylpentanamido)acetate]	1030 nM	89%	2510 nM	73%	0.41
CC(C)CC(CNC(=O)Nc1ccc(Br)cc1)C(=O)NCc1nnn[nH]1 (stereo not drawn) [Compound 33, N-((1H-tetrazol-5-yl)methyl)-2-((3-(4-bromophenyl)ureido)methyl)-4-methylpentanamide]	130 nM	98%	13 nM	95%	10
